Counter-ions that a name gives are not always drawn.

For test [1], the system named is europium-conjugated rabbit anti-mouse IgG antibody / mouse anti-FLAG XL 665 antibody. Description: IgG HTRF counter-assay. The conditions noted are these: no GCK or GKRP, mean ± SD. On the procedure:
(§1) S6P, F1P, and glucose were dissolved in water; GKAs were dissolved in DMSO.
(TIF) Click here for additional data file.
(TR-FRET usually uses a lanthanide donor and a delayed reading to cut background.)

In test [2] the target is T1, GCK enzymatic reaction inhibited by GKRP (recombinant human GCK and GKRP) (Homo sapiens, UniProt P35557+Q14397).
T1 construct: made in house
T1 sequence (P35557 1-465): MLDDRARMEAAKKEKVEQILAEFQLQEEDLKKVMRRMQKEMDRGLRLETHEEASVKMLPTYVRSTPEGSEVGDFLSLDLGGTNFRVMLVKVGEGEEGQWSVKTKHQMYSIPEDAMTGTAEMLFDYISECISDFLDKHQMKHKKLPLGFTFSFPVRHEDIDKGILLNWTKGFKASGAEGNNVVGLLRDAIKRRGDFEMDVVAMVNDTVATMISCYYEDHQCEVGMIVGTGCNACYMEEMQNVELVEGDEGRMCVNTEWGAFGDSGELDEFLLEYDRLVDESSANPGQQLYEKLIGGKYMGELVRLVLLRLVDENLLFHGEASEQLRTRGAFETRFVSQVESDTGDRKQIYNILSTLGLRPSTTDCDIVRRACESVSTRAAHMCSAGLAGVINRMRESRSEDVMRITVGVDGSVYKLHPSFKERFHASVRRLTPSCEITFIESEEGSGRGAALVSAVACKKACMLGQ
T1 sequence (Q14397 1-625): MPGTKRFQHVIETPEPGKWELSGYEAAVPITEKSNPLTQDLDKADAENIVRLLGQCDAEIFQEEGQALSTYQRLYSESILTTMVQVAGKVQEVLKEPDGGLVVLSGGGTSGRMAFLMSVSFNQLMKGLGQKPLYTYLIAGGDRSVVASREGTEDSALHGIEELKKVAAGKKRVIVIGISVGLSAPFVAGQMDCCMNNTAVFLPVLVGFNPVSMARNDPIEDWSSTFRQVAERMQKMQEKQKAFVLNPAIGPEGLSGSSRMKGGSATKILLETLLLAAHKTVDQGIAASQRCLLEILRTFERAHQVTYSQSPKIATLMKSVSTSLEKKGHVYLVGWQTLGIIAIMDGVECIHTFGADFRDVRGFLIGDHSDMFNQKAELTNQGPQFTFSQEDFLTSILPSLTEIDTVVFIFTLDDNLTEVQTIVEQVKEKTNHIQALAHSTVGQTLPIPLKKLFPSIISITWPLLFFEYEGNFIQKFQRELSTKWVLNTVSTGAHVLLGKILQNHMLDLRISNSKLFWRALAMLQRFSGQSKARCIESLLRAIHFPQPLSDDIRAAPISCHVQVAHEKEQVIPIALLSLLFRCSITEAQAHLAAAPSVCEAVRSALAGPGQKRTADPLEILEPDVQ
Briefly: Bioluminescence assay (ADP-Glo) of the GCK enzyme reaction with GKRP. It is filed as biochemical. The conditions noted are these: for LOPAC1280 screen outcome: 2 µM S6P; for response across formats (ADP only, GCK only, GCK-GKRP): 0.04 mM ADP, 4 nM GCK, 15 nM GCK with 15 nM GKRP. On the procedure: A luminescence-based assay was developed for detection of ADP generation by recombinant GST-GCK (ADP-Glo™ Kinase Assay; Promega). Final reaction conditions included 25 mM HEPES, 25 mM KCl, 2 mM MgCl2, 1 mM DTT, 0.025% BSA, 0.01% Tween-20, 5 mM glucose, and concentrations of GST-GCK and FLAG-GKRP as indicated, and the reaction was initiated by addition of ATP to a final concentration of 0.4 mM. The reaction was terminated and luminescence generated using ADP-Glo™ Reagent and Kinase Detection Reagent (both Promega). In 1536-well plate format, luminescence enzyme assay buffer was dispensed (2 µl/well) using a BioRAPTR into white 1536-well medium binding plates and initiated by addition of 1 µl 1.2 mM ATP. After lidded incubation for the times indicated at room temperature, 2.5 µl of ADP-Glo™ Reagent was added to each well and plates were incubated with lidding for 60 minutes at room temperature. Following 5 µl addition per well of Kinase Detection Reagent, plates were incubated with lidding for a further 30 minutes at room temperature before luminescent detection using a ViewLux Microplate Imager (PerkinElmer). For the LOPAC^1280 library screen, column 1 was all components with DMSO (maximum signal) and column 3 was no GCK with DMSO (minimum signal). These two control columns were used for data normalization. The final HTS protocol is in Table S3, and the data have been deposited in PubChem (AID 743206).
as §1
The firefly luciferase enzyme utilizes luciferin and ATP to generate bioluminescence, and the coupling of ATP-dependent kinases to luciferase activity has enabled kinase activity to be measured quantitatively by luminescence measurements in high-throughput screens. The ADP-Glo™ assay, utilizing a two-step luciferase-based ADP-detection protocol, was employed to measure GCK activity ( Figure 1C ). Initial validation was carried out in 384-well plate format, and focused on GCK in the absence of GKRP to test suitability of the ADP-Glo™ format for the GCK enzyme. A titration of 14 GCK concentrations (1.5–100 nM; n = 8 for each concentration) was assessed at 5 mM glucose and 0.4 mM ATP at pH 7.4. The reaction was incubated for 45 minutes at room temperature. To estimate percent conversion of ATP to ADP, mixtures of ATP and ADP (total concentration 0.4 mM) were tested in duplicate, containing 0, 3, 5, 10, 30, 50, 70, and 100% ADP. The luminescence value at 10% ADP corresponded to the luminescence generated by 4 nM GCK (Figure S7). The ADP-Glo™ kit is linear throughout the range tested and provides an excellent range of detection.
The effects of GKRP inhibition were then assessed using the same reaction conditions at pH 7.1. ADP generation was measured using a matrix of five concentrations each of GCK and GKRP (0, 5, 10, 15, and 20 nM) in quadruplicate ( Figure 5A ). Reactions were incubated for 75 minutes. Luminescence of 15 nM GCK was reduced by approximately 60% by 15 nM GKRP, and the mean S/B at 15 nM GCK +15 nM GKRP was 3.7.
Accordingly, the bioluminescence reaction was capable of measuring GCK enzymatic activity and its inhibition by GKRP. We therefore pursued miniaturization of the assay to 1536-well plate format and tested the effects of S6P and F1P in three different assay formats: 0.04 mM ADP in the absence of GCK and GKRP, 4 nM GCK, and 15 nM GCK with 15 nM GKRP ( Figure 5B ). All assays provided robust luminescence signal in the absence of F1P or S6P (S/B >4.0).

A further test deals with GCK and GKRP. On the set-up: method as in PMID 14627435. The conditions noted are these: enhancement of the interaction of GCK and GKRP; read-out: EC50, previously reported; cited from earlier work.

For `O=C(O)C1=CC(=C(c2ccc(O)c(C(=O)O)c2)c2ccc(O)c(C(=O)O)c2)C=CC1=O` [ATA, aurintricarboxylic acid], the IC50 in test [1] turned out to be 90 ± 30 nM. In addition, the LOPAC1280 screen outcome in test [2] (15 nM GCK, 15 nM GKRP) is “inhibitors of the GCK-GKRP interaction”.
Turning to `O=C(COP(=O)(O)O)[C@@H](O)[C@H](O)[C@H](O)CO` [F1P, fructose 1-phosphate], in test [2] (15 nM GCK, 15 nM GKRP, 75 minutes, mean ± SD, read-out: EC50 (activation of GCK enzymatic reaction, increase in luminescence)), the EC50 worked out at 1000 ± 200 nM. Further, the “response across formats (ADP only, GCK only, GCK-GKRP)” value in test [2] is listed as “dependent on the presence of GKRP”.
In the case of `O=P(O)(O)OC[C@@H](O)[C@@H](O)[C@H](O)[C@@H](O)CO` [S6P, sorbitol 6-phosphate], the IC50 in test [2] (15 nM GCK, 15 nM GKRP, 75 minutes, mean ± SD, read-out: IC50 (decrease in luminescence)) stood at 5 ± 0.6 nM. Besides, the “response across formats (ADP only, GCK only, GCK-GKRP)” value in test [2] is reported as “dependent on the presence of GKRP”. The EC50 with GCK and GKRP was approximately 500 nM.
`Cc1ccc(C(=O)Nc2ccc(S(=O)(=O)O)c3cc(S(=O)(=O)O)cc(S(=O)(=O)O)c23)cc1NC(=O)c1cccc(NC(=O)Nc2cccc(C(=O)Nc3cc(C(=O)Nc4ccc(S(=O)(=O)O)c5cc(S(=O)(=O)O)cc(S(=O)(=O)O)c45)ccc3C)c2)c1` [suramin sodium salt]: the IC50 in test [1] is 250 ± 70 nM. Besides, the LOPAC1280 screen outcome in test [2] (15 nM GCK, 15 nM GKRP) was “inhibitors of the GCK-GKRP interaction”.

As usually defined, the IC50 is the concentration needed to halve the response being measured. The EC50 is the concentration at which the effect is half-maximal.
